# From patent US20080207538A1, “Enhanced Production of Functional Proteins From Defective Genes” (priority 2004, published 2008)
# What was measured:
# [1] = system: stop codon inserted into the reading frame of firefly luciferase; assay: stop codon read-through, dual luciferase assay in transfected 293T cells; assay type: cell-based, human; details: relative to untreated transfected cells, 24 hour incubation
# Procedure: Plasmid construction. The wild type human fibroblast cell line GM02037 (Coriell Cell Repositories, NJ) was used as the DNA template for atm promoter amplification. In brief, the Qiagen Blood & Cell Culture DNA Mini kit was used to purify genomic DNA. ATM gene promoter primers, which were used to amplify the desired fragment DNA, were designed based on the sequence in Genebank. The forward primer sequence employed was […] (SEQ ID NO:1) and the reverse primer was […] (SEQ ID NO:2). PCR was carried out using the Roche Expand High Fidelity PCR system. The amplified atm promoter region was then cloned into the TOPO2.1 PCR vector (Invitrogen) for sequencing verification and subsequently subcloned into the promoterless plasmid PA3Luc. Firefly luciferase cDNA was mutated (QuikChange Site-Directed Mutagenesis Kit) in the desired region to furnish the three stop codons, as shown as FIG. 1(C). The CMV driven Renilla luciferase plasmid was purchased from Promega as the internal control for the dual luciferase assay.
# Transfections were performed using GeneJammer reagent (Stratagene) based on the protocol from the manufacturer. In brief, approximately […] HEK293T cells were seeded into white 96 well plates (Corning) and grown for less than 24 hours. Cells were transfected with 0.6 μL of GeneJammer and 0.1 μg plasmids. In the dual luciferase assay, the plasmid ratio of ATM promoter-driven firefly luciferase to CMV promoter-driven Renilla luciferase was 30:1. In the dual luciferase experiments that utilized the stop codon-containing firefly luciferase genes, the ratio was 40:1. On the second day after transfection, the medium in each well was changed, and the promoter and/or nonsense-suppressing agents added to the wells for a 24 hour incubation period. The cells were subsequently lysed and promoter activity/nonsense suppression efficiency then assessed via the dual luciferase assay.
# Dual luciferase assay. The dual luciferase kit was purchased from Promega and the protocol employed was conducted according to the directions supplied by the manufacturer. In brief, cells were washed with PBS and lysates were prepared using passive lysis buffer. Luminescence was determined with a Molecular Devices Lmax 96 well plate luminometer. Light emission was measured after each of the 100 μL luminescence substrates and/or stop solutions were injected. ATM promoter activity was calculated by the ratio of relative light units of flash (firefly) to glow (renilla) luminescence in each well, which was compared with control wells (cultured only in medium with plasmid but no drug treatment) in each plate. In the case of the stop codon suppression studies, controls also included cells containing the plasmids without the inserted stop codon, which were treated with nonsense suppressing and/or promoter activating agents. All individual treatments in a given experiment were performed in triplicate and all experiments repeated 3-10 times.
# An evaluation was made of the ability of aminoglycosides, in combination with promoter activating agents, to augment read-through of a stop codon inserted into the reading frame of firefly luciferase (FIG. 1C).
# nonsense mutations = details: reported, Keeling and Bedwell, 2002; cited from earlier work
# [2] = system: animal models of cystic fibrosis and Duchenne muscular dystrophy; details: reported; cited from earlier work
# atm message = assay: atm mRNA quantitation by real time PCR (RT-PCR) after drug treatment; assay type: cell-based, human; details: for Fold-increase (atm message levels): relative to untreated cell line
# Procedure: Cell culture and transfection. Human Kidney HEK293T cell was a gift from Professor Philipp Scherer in the Department of Cell Biology at the Albert Einstein College of Medicine. All other cell lines were purchased from Coriell Cell Repositories, NJ. HEK293T cells were maintained in Dulbecco's Modified Eagle Medium with 1 g/L D-glucose and 10% fetal bovine serum. The Human AT fibroblast cell line GM05823 was cultured in MEM medium with 1 g/L D-glucose and 15% fetal bovine serum. The Human lympoblastoid cell lines GM 13810 and GM13860 were cultured in RPMI 1640 medium with 10% heat inactivated fetal bovine serum and 1 g/L of D-glucose. All cell lines were incubated at 37° C. in a humidified 5% CO2 atmosphere.
# mRNA Quantitation. Single-stranded cDNAs were synthesized by reverse transcription, using a First Strand cDNA Synthesis kit (Invitrogen), and then used as a template in polymerase chain reactions. ATM mRNA was primarily quantified using real time polymerase chain reaction (PCR). In brief, cells were treated with the desired drugs or combinations thereof under conditions identical to those described above for the dual luciferase assay. Cells were lysed and RNA extracted with the TRIzol reagent (Invitrogen). Approximately 1 μg of total RNA in each sample was subjected to CDNA synthesis using the First Strand cDNA Synthesis kit (Invitrogen). In the real time PCR reaction, the FAM labeled MGB probe, CCAGCTATTTGGTTTGAG (SEQ ID NO:3), was designed by the Primer Express software from Applied Biosystems (AB) and synthesized by AB. The human β-actin MGB probes, VIC or FAM fluorescently labeled, were purchased from AB. All other reaction reagents were purchased from AB. PCR reactions were performed using the ABI PRISM 7000 Sequence Detection System in triplicate. Some samples were also tested on the ABI 7700 Sequence Detection System for verification and essentially identical results were obtained with both real time PCR instruments. All collected data were compared with a […] control. In addition to real time PCR, the branched chain DNA (bDNA) RNA quantitation method was employed as well. Briefly, the QuantiGene kit as well as the customer designed atm probe sets were purchased from Genospectra. The latter probes target the same region on the atm message RNA region as the real time PCR probes. The cells were treated as described above for the dual luciferase assay. Cell lysates were transferred into a capture plate and atm mRNA allowed to hybridize with the probe set at 53° C. overnight. After 16-20 hours, the signal was amplified and subsequently read using a Molecular Devices Lmax luminometer. The internal human β-actin probe sets were purchased from Genospectra. All experiments were performed in triplicate.
# The effect of ofloxacin on native atm message levels was subsequently examined in 293T cells as well as in lymphoblastoid and primary fibroblast cell lines derived from A-T patients (Table 1). Message levels are enhanced 2.4±0.1 fold in 293T cells treated with ofloxicin for 24 hours. By contrast, an up to nearly 6-fold increase is observed in ATM-deficient (A-T) cell lines. The latter results offer the intriguing possibility that atm message levels are elevated more dramatically in an ATM-deficient environment.
# atm promoter = assay: cell-based screen for atm promoter enhancing agents (atm/pA3LUC dual luciferase, 293T cells); design: species or system human; details: transiently transfected 293T cells; firefly/renilla luciferase
# Source text: Plasmid construction. The wild type human fibroblast cell line GM02037 (Coriell Cell Repositories, NJ) was used as the DNA template for atm promoter amplification. In brief, the Qiagen Blood & Cell Culture DNA Mini kit was used to purify genomic DNA. ATM gene promoter primers, which were used to amplify the desired fragment DNA, were designed based on the sequence in Genebank. The forward primer sequence employed was […] (SEQ ID NO:1) and the reverse primer was GCCACGGGAGGAGGCGAG (SEQ ID NO:2). PCR was carried out using the Roche Expand High Fidelity PCR system. […]
# Transfections were performed using GeneJammer reagent (Stratagene) based on the protocol from the manufacturer. […] The cells were subsequently lysed and promoter activity/nonsense suppression efficiency then assessed via the dual luciferase assay.
# Dual luciferase assay. […] Luminescence was determined with a Molecular Devices Lmax 96 well plate luminometer. Light emission was measured after each of the 100 μL luminescence substrates and/or stop solutions were injected. ATM promoter activity was calculated by the ratio of relative light units of flash (firefly) to glow (renilla) luminescence in each well, which was compared with control wells (cultured only in medium with plasmid but no drug treatment) in each plate. […]
# [3] = system: patients with sickle-cell anemia; details: Perrine et al., 1993; cited from earlier work
molecule,measurement,setting,value
"CN[C@@H]1[C@@H](O)[C@@H](O[C@@H]2[C@@H](O)[C@H](O[C@H]3O[C@H]([C@@H](C)O)[C@@H](O)[C@H](O)[C@H]3N)[C@@H](N)C[C@H]2N)OC[C@]1(C)O [Geneticin, geneticin]",Fold-increase (read-through),[1]; amber (UAG) stop codon,14.9 ± 1.9 fold
same,Fold-increase (read-through),[1]; ochre (UAA) stop codon,7.9 ± 3.0 fold
same,Fold-increase (read-through),[1]; opal (UGA) stop codon,6.5 ± 0.8 fold
gentamicin,effectiveness at suppressing nonsense mutations compared with tobramycin,nonsense mutations,more effective
same,Fold-increase (read-through),[1]; amber (UAG) stop codon,8.2 ± 1.8 fold
same,Fold-increase (read-through),[1]; ochre (UAA) stop codon,6.7 ± 1.5 fold
same,Fold-increase (read-through),[1]; opal (UGA) stop codon,8.7 ± 1.2 fold
NCC[C@H](O)C(=O)N[C@@H]1C[C@H](N)[C@@H](O[C@H]2O[C@H](CN)[C@@H](O)[C@H](O)[C@H]2O)[C@H](O)[C@H]1O[C@H]1O[C@H](CO)[C@@H](O)[C@H](N)[C@H]1O [amikacin],effectiveness at suppressing nonsense mutations compared with tobramycin,nonsense mutations,more effective
O=C(O)c1cccc(-c2noc(-c3ccccc3F)n2)c1 [PTC124],efficacy in animal models,[2],effective
"CC1COc2c(N3CCN(C)CC3)c(F)cc3c(=O)c(C(=O)O)cn1c23 (stereo not shown) [Ofloxacin, ofloxacin]",Message levels enhanced (atm),"atm message; 293T cells, treated for 24 hours",2.4±0.1 fold
same,increase in atm message levels,"atm message; ATM-deficient (A-T) cell lines, summary of Table 1",≤ 6 fold
same,Fold-increase (atm message levels),"atm message; GM05823 (A-T) fibroblast cell line, 2 hours after ofloxacin",2.2 ± 0.1 fold
same,Fold-increase (atm message levels),"atm message; GM05823 (A-T) fibroblast cell line, 6 hours after ofloxacin",3.0 ± 0.2 fold
same,Fold-increase (atm message levels),"atm message; GM05823 (A-T) fibroblast cell line, 24 hours after ofloxacin",5.8 ± 0.4 fold
same,Fold-increase (atm message levels),"atm message; GM13810 (A-T) lymphoblastoid cell line, 2 hours after ofloxacin",1.2 ± 0.2 fold
same,Fold-increase (atm message levels),"atm message; GM13810 (A-T) lymphoblastoid cell line, 6 hours after ofloxacin",2.3 ± 0.3 fold
same,Fold-increase (atm message levels),"atm message; GM13810 (A-T) lymphoblastoid cell line, 24 hours after ofloxacin",5.4 ± 0.7 fold
same,Fold-increase (atm message levels),"atm message; GM13860 (A-T) lymphoblastoid cell line, 2 hours after ofloxacin",3.8 ± 0.9 fold
same,Fold-increase (atm message levels),"atm message; GM13860 (A-T) lymphoblastoid cell line, 6 hours after ofloxacin",2.3 ± 0.3 fold
same,Fold-increase (atm message levels),"atm message; GM13860 (A-T) lymphoblastoid cell line, 24 hours after ofloxacin",3.3 ± 0.3 fold
"Nc1nc2nc[nH]c2c(=S)[nH]1 [Thioguanine, thioguanine]",activation of the atm promoter,atm promoter,induce atm promoter activity
"CCCC(=O)[O-].[Na+] [Sodium butyrate, sodium butyrate]",toxicity in patients,[3],minimal toxicity
